# Measured values as given in patent publication US20050059610A1 (priority 2003, published 2005).
# Where a SMILES comes first, the peptide text is derived from it.
# Tests used:
# sepsis (CLP) = test: CLP with or without quercetin (HSP 70 inhibitor): survival, lung HSP/NOS, metabolism, TNF; assay type: in vivo, Sprague-Dawley rats; settings: quercetin 400 mg/kg IP 6 hours pre-CLP
# Protocol: Methods: Male Sprague-Dawley rats were divided into 5 groups. Two groups were treated with 400 mg/kg of quercetin (Q) IP (HSP 70 inhibitor) 6 hours pre-CLP. […] The final group (CONT, n=6) received no treatment. Five-day survival was monitored. In separate studies, lung was harvested 24-hours post-CLP and tissue metabolism analyzed by 31P- and 1H-MRS. A final study analyzed blood for TNF- at 6 hours post-CLP and lung tissue 6 hours post-CLP for HSP-70, iNOS, eNOS, and activated heat shock factor-1 (HSF-1).
# [1] = system: polymicrobial sepsis and peritonitis (CLP); test: CLP peritonitis/polymicrobial sepsis, GLN 30 minutes after induction, with or without quercetin; assay type: in vivo, rat; settings: quercetin with GLN
# Excerpt: Cecal ligation and puncture (CLP) in the rat was chosen as the appropriate model.
# [2] = system: polymicrobial sepsis (CLP); test: Cecal ligation and puncture (CLP): lung and heart tissue metabolism by MRS, survival; assay type: in vivo, Sprague-Dawley rats; settings: single large dose following onset of sepsis, CLP rat
# Protocol: Survival was monitored for five days. In a separate group of animals (n=4/group), lung and heart tissue was harvested 24 hours post-CLP and tissue metabolism was analyzed by ^1H-MRS and ^31P-MRS.
# [3] = system: myocardial ischemia/reperfusion injury; settings: single dose 18 hours prior to myocardial injury, rat
# [4] = system: polymicrobial sepsis (2CLP); test: Cecal-ligation and double-puncture (2CLP) sepsis: survival, cytokines, lung HSP 72; assay type: in vivo, Sprague-Dawley rats
# Excerpt: Further, increased Interleukin-18 (IL-18) levels appear to play a critical role in cytokine-induced organ failure and can be predictive of mortality in sepsis patients.
# Increased Interleukin-18 (IL-18) levels appear to play a critical role in cytokine-induced organ failure and can be predictive of mortality in sepsis patients.
# congestive heart failure = settings: 4 weeks of supplementation (Azuma et al 1983); cited from earlier work
compound,measurement,setting,value
"O=c1c(O)c(-c2ccc(O)c(O)c2)oc2cc(O)cc(O)c12 [Q, quercetin, reference compound]",effect on TNF- or NOS expression,sepsis (CLP),No Q effect
same,HSF-1 activation and subsequent HSP70 expression,sepsis (CLP); with GLN,Inhibition
same,effect on GLN's improvements in lung tissue metabolic dysfunction,sepsis (CLP); with GLN,blocked
same,effect on GLN's survival benefit,sepsis (CLP); with GLN,abrogated
same,effect on GLN attenuation of tissue metabolic dysfunction,[1],inhibited
same,effect on GLN improvement of survival,[1],inhibited
same,effect on GLN-enhanced HSP 70 expression and HSF-1 activation,[1],blocked
C[C@H](N)C(=O)N[C@@H](CCC(N)=O)C(=O)O [alanyl-glutamine] (H-Ala-Gln-OH),cellular metabolism in the lung,[2],improve
same,myocardial function following ischemia and reperfusion injury,[3],improve myocardial function
same,lung HSP 72 expression versus control,[4]; following 2CLP,restore normal heat shock protein expression
same,inflammatory cytokine release,"[4]; single large dose following onset of sepsis, CLP rat",attenuate
NCCS(=O)(=O)O [taurine],"dyspnea, palpitation, crackles, edema, and New York Heart Association functional class",congestive heart failure,highly significant improvement
